Source: patent US20090012179A1, “Use of Tyrphostins to Stimulate Neurite Outgrowth” (priority 2004, published 2009)
“Also recorded” adds a separate entry of the source.

Columns and labels:
ERK1 (p44) = ERK1 (p44) activation in NS20Y cells; format: cell-based, mouse
Method: Cell stimulation, immunoblotting, and immunoprecipitation: Cells or neurons are grown in 6-well or 12-well plates to 80-90% confluence. The cells are starved in serum-free DMEM overnight, and then incubated with receptor agonists at 37° C. for the indicated durations. In some experiments, signaling inhibitors are added 45 minutes before simulation. Incubation is terminated by placing the tissue culture cluster on ice and rapidly aspirating the medium, followed by the addition of ice-cold RIPA^+ buffer (50 mM Tris-HCl, pH 7.5, 150 mM NaCl, 1% NP-40, 0.5% deoxycholate, 0.1% SDS, 1 mM NaVO3, and protease inhibitor (Calbiochem, San Diego, Calif.)) and incubation for 15 minutes with shaking. After centrifugation (14,000×g at 4° C. for 15 minutes), the supernatant is collected and the protein concentration is measured and adjusted using RIPA^+ buffer. Samples (30 μl) with equal amounts of protein mixed with Laemmli loading buffer are denatured at 70° C. for 10 minutes and separated by SDS-PAGE. […] The proteins are transferred to PVDF membrane (Millipore), detected with the primary antibodies (including anti-active ERK; anti-p-Tyr clone 4G10, Upstate; anti-TH; anti-DAT, sigma, anti-β-tubulin, etc.) and visualized with the SuperSignal™ West Pico chemiluminescent kit (Pierce Biotechnology, Rockford, Ill.). The intensity of bands is quantified using ImageQuant™ 5.2 (Amersham). […]

[1] = test system: primary dopaminergic neuron cultures; experiment: Neuroprotection against MPP+ in primary dopaminergic neuron cultures; format: cell-based, rat; conditions: MPP+ 25 μM; A9 added before or after MPP+; TH staining
Method: Primary cultures of rat embryonic SNc neuron cultures were grown on treated 12-well plates (for dopamine uptake) or coverslips (for neuroprotection) for 10 days as described in the Examples section. In FIG. 6A, the neurons were treated with different concentrations of A9 for 6 days before dopamine uptake was measured. Data=mean±SD (n=3). In FIG. […] Half of the medium was changed with fresh A9 on day 14. The neurons were fixed on day 16 and stained for tyrosine hydroxylase (TH, green) and total-ERK (red). Images were captured with fluorescence microscopy at magnification×100.
The dopaminergic neurons that have been cultured on poly-D-lysine treated coverslips or 12-well cell culture plates for 10 days are treated with vehicle or A9 at 1 nM, 10 nM, 100 nM, or 1 μM for 7 days. […] Half of the medium is changed with fresh medium containing A9 at day 4. To test the involvement of ERK and PI3K, inhibitors (including PD98059, SL327, wortmannin, and LY294002) are added with A9. […] The amount of HSV used and the best time to do functional assays is determined. To count the TH-positive neurons, the neurons on coverslips are fixed, stained for both tyrosine hydroxylase (TH) and total-ERK (control) at the end of A9 treatment and imaged with a conventional or confocal fluorescence microscope. […]

[2] = test system: primary rat SNc neuron cultures; experiment: [3H]Dopamine uptake in primary SNc neuron cultures; format: cell-based; conditions: A9 for six days
Method: Primary cultures of rat embryonic SNc neuron cultures were grown on treated 12-well plates (for dopamine uptake) or coverslips (for neuroprotection) for 10 days as described in the Examples section. In FIG. 6A, the neurons were treated with different concentrations of A9 for 6 days before dopamine uptake was measured. Data=mean±SD (n=3). In FIG. 6B, MPP^+ (25 μM) was added into medium on day 11, while A9 was added either on day 10 (pretreatment) or day 12 (after MPP^+). Half of the medium was changed with fresh A9 on day 14. The neurons were fixed on day 16 and stained for tyrosine hydroxylase (TH, green) and total-ERK (red). Images were captured with fluorescence microscopy at magnification×100.
Dopamine uptake: NS20Y cells or neuron cultures are plated on poly-L-lysine (for NS20Y) or poly-D-lysine (for neuron culture)-coated 24-well plates and grown to confluence. The medium is decanted and cells are prepared for [^3H]dopamine uptake. Cells are incubated in the presence or absence of mazindol (10 μM to determine nonspecific uptake) for at least 10 minutes prior to addition of [^3H]dopamine. The uptake assay (final volume 0.5 ml) is initiated by the addition of 50 nM [^3H]dopamine and 2 μM dopamine in Krebs-HEPES buffer. […] Radioactivity remaining in each well is determined using liquid scintillation spectrometry. […]

ERK = ERK activation in NS20Y neuroblastoma cells, immunoblotting for dually phosphorylated ERK; format: cell-based, mouse; conditions: dually phosphorylated ERK by immunoblotting

CC(C)(C)c1cc(C=C(C#N)C#N)cc(C(C)(C)C)c1O [A9, tyrphostin A9]
ERK1 (p44) activation (ERK1 (p44)): activated ERK1 (p44) the most | Protective effect against neurotoxin MPP+ [1]: robust protective effect; also recorded: neuroprotection against MPP^+ | Concentration at which maximum dopamine uptake response is reached [2]: 100 nM | Dopamine uptake [2]: increased dopamine uptake in primary rat SNc neuron cultures in a concentration-dependent manner; also recorded: stimulated dopamine uptake increase | ERK activation (ERK): robust activation of ERK; also recorded: stimulated ERK activation in NS20Y cells in a time (FIG. 2A) and dose (FIG. 2B)-dependent manner; also recorded: induced robust and sustained ERK activation | ERK activation (ERK; listed as tyrphostin A9): stimulated robust and sustained ERK activation in a time and dose-dependent manner
